ChEMBL document CHEMBL5532651, “HDAC specificity and kinase off-targeting by purine-benzohydroxamate anti-hematological tumor agents” (Eur J Med Chem, 2024)

Assays:
HCT-116 = assay: cells; conditions: Homo sapiens
MCF7 = assay: cells; format: functional, cell-based; conditions: Homo sapiens
NAMALVA = assay: cells; conditions: Homo sapiens
Jurkat = assay: cells; conditions: Homo sapiens
[1] = target: T1, Protein deacetylase HDAC6 (Homo sapiens, UniProt Q9UBN7); assay: Inhibition of HDAC6 (unknown origin)
T1 sequence (Q9UBN7 whole entry): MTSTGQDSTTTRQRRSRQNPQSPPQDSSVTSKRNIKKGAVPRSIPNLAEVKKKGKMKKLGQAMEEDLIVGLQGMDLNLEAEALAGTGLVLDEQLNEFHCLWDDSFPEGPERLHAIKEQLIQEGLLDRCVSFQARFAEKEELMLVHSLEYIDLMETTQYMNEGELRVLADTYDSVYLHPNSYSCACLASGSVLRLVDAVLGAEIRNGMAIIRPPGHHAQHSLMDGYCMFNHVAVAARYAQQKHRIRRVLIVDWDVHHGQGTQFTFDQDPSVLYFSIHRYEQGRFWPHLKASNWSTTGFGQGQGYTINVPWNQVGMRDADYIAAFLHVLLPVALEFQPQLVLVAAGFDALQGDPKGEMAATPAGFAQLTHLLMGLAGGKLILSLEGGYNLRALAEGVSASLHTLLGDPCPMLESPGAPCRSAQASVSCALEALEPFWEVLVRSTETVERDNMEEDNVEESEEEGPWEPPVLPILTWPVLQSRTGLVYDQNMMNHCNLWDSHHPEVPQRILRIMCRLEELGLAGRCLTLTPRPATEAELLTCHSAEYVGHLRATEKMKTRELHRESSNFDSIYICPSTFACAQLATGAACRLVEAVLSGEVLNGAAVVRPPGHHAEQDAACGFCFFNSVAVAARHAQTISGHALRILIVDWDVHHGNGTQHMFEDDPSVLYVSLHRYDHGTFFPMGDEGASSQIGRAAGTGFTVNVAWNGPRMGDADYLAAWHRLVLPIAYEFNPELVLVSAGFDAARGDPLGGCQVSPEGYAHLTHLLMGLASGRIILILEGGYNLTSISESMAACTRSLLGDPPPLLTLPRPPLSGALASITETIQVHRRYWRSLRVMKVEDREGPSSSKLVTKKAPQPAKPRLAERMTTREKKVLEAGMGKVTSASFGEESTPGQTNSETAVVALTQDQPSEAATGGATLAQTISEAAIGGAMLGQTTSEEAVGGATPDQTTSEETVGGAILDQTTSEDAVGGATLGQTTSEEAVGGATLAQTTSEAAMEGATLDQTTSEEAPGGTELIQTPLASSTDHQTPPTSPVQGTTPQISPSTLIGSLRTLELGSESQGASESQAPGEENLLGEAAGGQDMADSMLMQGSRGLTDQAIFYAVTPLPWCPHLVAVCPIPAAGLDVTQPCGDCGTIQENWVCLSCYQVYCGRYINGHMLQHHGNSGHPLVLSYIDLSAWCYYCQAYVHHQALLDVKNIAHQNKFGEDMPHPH

IC50 (HCT-116) [µM]	IC50 (MCF7) [µM]	IC50 (NAMALVA) [µM]	IC50 (Jurkat) [µM]	IC50 [1] [nM]	SMILES
16.3	> 50	0.5	0.6		COc1ccc(Nc2ncnc3c2ncn3Cc2ccc(C(=O)NO)cc2)cc1OC
> 50	> 50	> 50	> 50		COC(=O)c1ccc(Cn2cnc3c(Nc4ccc(Cl)c(C(F)(F)F)c4)ncnc32)cc1
> 50	> 50	> 50	> 50		O=C(NO)c1cccc(Cn2cnc3c(O)ncnc32)c1
> 50	> 50	0.13	0.2		O=C(NO)c1ccc(Cn2cnc3c(Nc4ccccc4)ncnc32)cc1
> 50	> 50	> 50	> 50		O=C(NO)c1ccc(Cn2cnc3c(O)ncnc32)cc1
> 50	> 50	> 50	> 50		Cc1ccc(Nc2ncnc3c2ncn3Cc2ccc(C(=O)NO)cc2)cc1S(N)(=O)=O
> 50	> 50	> 50	> 50		O=C(NO)c1ccc(Nc2ncnc3[nH]cnc23)cc1
				2600	O=C(/C=C/c1cccc(S(=O)(=O)Nc2ccccc2)c1)NO [BELINOSTAT]
